Data reported in patent US8722849B2, “Polypeptides” (Novo Nordisk A/S, priority 2011, dated 2014).
≈ marks a conversion by molar mass, not a printed value. Read-outs that look alike come from different tables or passages of the source. Starred links: 1 amine or outer side, 2 acyl side, 3 side chain; linkers in the order of their positions; H or OH if unused. Positions of bridges follow the written chain, without caps; N, C: chain ends. Residues, ends and D or L forms follow the SMILES beside them. *: point of attachment. C20 diacid = O=C(O)CCCCCCCCCCCCCCCCCCC(=O)*; C18 diacid = O=C(O)CCCCCCCCCCCCCCCCC(=O)*; γGlu = O=C(O)[C@H](CCC(=O)[*:2])N[*:1]

Tests used:
[1] = Assay (IV) determination of solubility; format: physicochemical
Outline: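 Polypeptide in water (~500 nmol/ml) mixed 1:1 with 100 mM glycylglycine (pH 3.0–5.0) or bistrispropane (pH 6.0–8.0) buffers. Held 18 hours at room temperature, then centrifuged. Polypeptide remaining in solution quantified by HPLC.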

[2] = Assay (IX) pK, determination of T½ in mini-pig; format: in vivo, Göttingen mini-pigs; conditions: male, Göttingen, iv, 2 nmol/kg; minipig; plasma terminal half-life
food intake = assay: Assay (I) efficacy testing on appetite (food intake), ad libitum fed rat model; format: in vivo, Sprague Dawley (SD) rats; conditions: 3 nmol/kg
Outline: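 Sprague Dawley rats (200–250 g), single-housed under reversed light cycle with free food and water, got one ip, po or sc dose of 0.01–3 mg/kg just before lights-off. Individual food intake recorded hourly for 7 h, then at 24 h and sometimes 48 h; groups of 5–8, Grubbs outliers excluded.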

[3] = bistrispropane buffer, pH 6, pH 6.0, read-out: Solubility pH 6.0
[4] = bistrispropane buffer, pH 6.5, pH 6.5, read-out: Solubility pH 6.5
[5] = bistrispropane buffer, pH 7, pH 7.0, 18 hours at room temperature, Table 3, read-out: Solubility pH 7.0
[6] = bistrispropane buffer, pH 7, pH 7.0, Table 8, read-out: Solubility pH 7.0
[7] = bistrispropane buffer, pH 7, pH 7.0, Table 9, read-out: Solubility pH 7.0
[8] = bistrispropane buffer, pH 7, pH 7.0, read-out: Solubility pH 7.0
[9] = bistrispropane buffer, pH 7.5, pH 7.5, Table 9, read-out: Solubility pH 7.5
[10] = bistrispropane buffer, pH 7.5, pH 7.5, read-out: Solubility pH 7.5
[11] = bistrispropane buffer, pH 8, pH 8.0, read-out: Solubility pH 8.0
[12] = glycylglycine buffer, pH 3, pH 3.0, read-out: Solubility pH 3.0
[13] = glycylglycine buffer, pH 4, pH 4.0, 18 hours at room temperature, Table 2, read-out: Solubility pH 4.0
[14] = glycylglycine buffer, pH 4, pH 4.0, read-out: Solubility pH 4.0
[15] = glycylglycine buffer, pH 5, pH 5.0, read-out: Solubility pH 5.0

Row | Structure (SMILES) | solubility at 18 h [1, 3] | solubility at 18 h [1, 4] | solubility at 18 h [1, 5] | solubility at 18 h [1, 6] | solubility at 18 h [1, 7] | solubility at 18 h [1, 8] | solubility at 18 h [1, 9] | solubility at 18 h [1, 10] | solubility at 18 h [1, 11] | solubility at 18 h [1, 12] | solubility at 18 h [1, 13] | solubility at 18 h [1, 14] | solubility at 18 h [1, 15] | half-life [2] | Food intake reduction 0-24 h 3 nmol/kg (%) (food intake) | Food intake reduction 24-48 h 3 nmol/kg (%) (food intake)
1 | CC[C@H](C)[C@H](NC(=O)[C@@H]1CCCN1C(=O)CNC(=O)[C@H](Cc1ccccc1)NC(=O)[C@H](CC(N)=O)NC(=O)[C@H](CC(N)=O)NC(=O)[C@H](CO)NC(=O)[C@H](CO)NC(=O)[C@H](Cc1c[nH]cn1)NC(=O)[C@H](CCCNC(=N)N)NC(=O)[C@H](CC(C)C)NC(=O)[C@H](Cc1ccccc1)NC(=O)[C@H](CCC(=O)O)NC(=O)[C@H](C)NC(=O)[C@H](CC(C)C)NC(=O)[C@H](CCCNC(=N)N)NC(=O)[C@H](CCC(N)=O)NC(=O)[C@@H](NC(=O)[C@H](C)NC(=O)[C@@H]1CSSC[C@H](NC(=O)[C@H](CCCCN)NC(=O)CC[C@H](NC(=O)CCCCCCCCCCCCCCCCCCC(=O)O)C(=O)O)C(=O)N[C@@H](CC(N)=O)C(=O)N[C@@H]([C@@H](C)O)C(=O)N[C@@H](C)C(=O)N[C@@H]([C@@H](C)O)C(=O)N1)[C@@H](C)O)C(=O)N[C@@H](CC(C)C)C(=O)N1CCC[C@H]1C(=O)N1CCC[C@H]1C(=O)N[C@H](C(=O)N[C@@H](CC(N)=O)C(=O)N[C@H](C(=O)NCC(=O)N[C@@H](CO)C(=O)N[C@@H](CC(N)=O)C(=O)N[C@H](C(=O)N1CCC[C@H]1C(N)=O)[C@@H](C)O)C(C)C)[C@@H](C)O [Example 53, N-alpha-[(S)-4-Carboxy-4-(19-carboxynonadecanoylamino)butyryl]-[Glu14,Arg17,Pro37]-pramlintide] | > 200 µM | > 200 µM | > 200 µM | > 200 µM | > 200 µM | > 200 µM | > 200 µM | > 200 µM | > 200 µM | > 200 µM | > 200 µM | > 200 µM | > 200 µM | 98 h | 40% | 28%
2 | CC[C@H](C)[C@H](NC(=O)[C@@H]1CCCN1C(=O)CNC(=O)[C@H](Cc1ccccc1)NC(=O)[C@H](CC(N)=O)NC(=O)[C@H](CC(N)=O)NC(=O)[C@H](CO)NC(=O)[C@H](CO)NC(=O)[C@H](Cc1c[nH]cn1)NC(=O)[C@H](Cc1c[nH]cn1)NC(=O)[C@H](CC(C)C)NC(=O)[C@H](Cc1ccccc1)NC(=O)[C@H](CCC(=O)O)NC(=O)[C@H](C)NC(=O)[C@H](CC(C)C)NC(=O)[C@H](CCCNC(=N)N)NC(=O)[C@H](CCC(N)=O)NC(=O)[C@@H](NC(=O)[C@H](C)NC(=O)[C@@H]1CSSC[C@H](NC(=O)[C@H](CCCCN)NC(=O)CC[C@H](NC(=O)CCCCCCCCCCCCCCCCCCC(=O)O)C(=O)O)C(=O)N[C@@H](CC(N)=O)C(=O)N[C@@H]([C@@H](C)O)C(=O)N[C@@H](C)C(=O)N[C@@H]([C@@H](C)O)C(=O)N1)[C@@H](C)O)C(=O)N[C@@H](CC(C)C)C(=O)N1CCC[C@H]1C(=O)N1CCC[C@H]1C(=O)N[C@H](C(=O)N[C@@H](CC(N)=O)C(=O)N[C@H](C(=O)NCC(=O)N[C@@H](CO)C(=O)N[C@@H](CC(N)=O)C(=O)N[C@H](C(=O)N[C@@H](Cc1ccc(O)cc1)C(N)=O)[C@@H](C)O)C(C)C)[C@@H](C)O [Example 27, N-alpha-[(S)-4-Carboxy-4-(19-carboxynonadecanoylamino)butyryl]-[Glu14,His17]-pramlintide] ({C20 diacid-γGlu}-KCNTATCATQRLAEFLHHSSNNFGPILPPTNVGSNTY-NH2; disulfide 2-7 (inferred)) | > 200 µM | 174 µM (≈ 775 µg/mL) | 160 µM (≈ 713 µg/mL) | – | – | 160 µM (≈ 713 µg/mL) | – | > 200 µM | > 200 µM | > 200 µM | > 200 µM | > 200 µM | > 200 µM | 90 h | 56% | 53%
3 | CC[C@H](C)[C@H](NC(=O)[C@@H]1CCCN1C(=O)CNC(=O)[C@H](Cc1ccccc1)NC(=O)[C@H](CC(N)=O)NC(=O)[C@H](CC(N)=O)NC(=O)[C@H](CO)NC(=O)[C@H](CO)NC(=O)[C@H](Cc1c[nH]cn1)NC(=O)[C@H](Cc1c[nH]cn1)NC(=O)[C@H](CC(C)C)NC(=O)[C@H](Cc1ccccc1)NC(=O)[C@H](CCC(=O)O)NC(=O)[C@H](C)NC(=O)[C@H](CC(C)C)NC(=O)[C@H](CCCNC(=N)N)NC(=O)[C@H](CCC(N)=O)NC(=O)[C@@H](NC(=O)[C@H](C)NC(=O)[C@@H]1CSSC[C@H](NC(=O)[C@H](CCCCN)NC(=O)CC[C@H](NC(=O)CCCCCCCCCCCCCCCCC(=O)O)C(=O)O)C(=O)N[C@@H](CC(N)=O)C(=O)N[C@@H]([C@@H](C)O)C(=O)N[C@@H](C)C(=O)N[C@@H]([C@@H](C)O)C(=O)N1)[C@@H](C)O)C(=O)N[C@@H](CC(C)C)C(=O)N1CCC[C@H]1C(=O)N1CCC[C@H]1C(=O)N[C@H](C(=O)N[C@@H](CC(N)=O)C(=O)N[C@H](C(=O)NCC(=O)N[C@@H](CO)C(=O)N[C@@H](Cc1c[nH]cn1)C(=O)N[C@H](C(=O)N[C@@H](Cc1ccc(O)cc1)C(N)=O)[C@@H](C)O)C(C)C)[C@@H](C)O [Example 59, N-alpha-[(S)-4-Carboxy-4-(17-carboxyheptadecanoylamino)butyryl]-[Glu14,His17,His35]-pramlintide] ({C18 diacid-γGlu}-KCNTATCATQRLAEFLHHSSNNFGPILPPTNVGSHTY-NH2; disulfide 2-7 (inferred)) | > 200 µM | > 200 µM | > 200 µM | > 200 µM | > 200 µM | > 200 µM | > 200 µM | > 200 µM | > 200 µM | > 200 µM | > 200 µM | > 200 µM | > 200 µM | 59 h | 59% | 27%
